Data from PMC8817233 (Journal of medicinal chemistry, 2021).
Entries after “also recorded” stand apart in the source; their conditions may differ.

Legend:
[1] = target: T1, β-catenin/BCL9 PPI (Homo sapiens, UniProt P35222); assay: AlphaScreen competitive inhibition assay of the β-catenin/BCL9 PPI; type: binding; conditions: for fold less potent than ZW4864 (β-catenin/BCL9 Ki): compared with ZW4864
T1 sequence (P35222 1-781): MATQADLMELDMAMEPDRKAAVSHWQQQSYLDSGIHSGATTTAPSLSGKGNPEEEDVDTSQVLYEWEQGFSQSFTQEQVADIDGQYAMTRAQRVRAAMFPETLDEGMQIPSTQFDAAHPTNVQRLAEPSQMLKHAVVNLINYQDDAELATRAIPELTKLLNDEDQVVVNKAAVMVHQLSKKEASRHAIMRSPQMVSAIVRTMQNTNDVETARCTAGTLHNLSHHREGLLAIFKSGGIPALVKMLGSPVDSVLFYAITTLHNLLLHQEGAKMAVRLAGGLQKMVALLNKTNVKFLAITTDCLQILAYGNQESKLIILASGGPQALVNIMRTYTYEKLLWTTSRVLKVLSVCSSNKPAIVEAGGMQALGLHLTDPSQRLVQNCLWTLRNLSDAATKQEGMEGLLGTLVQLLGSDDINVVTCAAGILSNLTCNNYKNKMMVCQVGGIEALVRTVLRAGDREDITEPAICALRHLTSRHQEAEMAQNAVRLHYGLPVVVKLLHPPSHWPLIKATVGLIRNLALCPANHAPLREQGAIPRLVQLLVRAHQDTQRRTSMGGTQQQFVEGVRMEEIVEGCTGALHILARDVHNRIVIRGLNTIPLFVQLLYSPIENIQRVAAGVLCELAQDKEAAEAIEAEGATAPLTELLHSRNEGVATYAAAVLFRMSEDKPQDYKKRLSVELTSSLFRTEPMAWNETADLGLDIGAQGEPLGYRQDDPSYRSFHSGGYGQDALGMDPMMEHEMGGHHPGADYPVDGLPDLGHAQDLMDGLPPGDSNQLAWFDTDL

[2] = target: T2, purified full-length β-catenin (Homo sapiens, UniProt P35222); assay: Streptavidin pull-down with purified protein; type: binding; conditions: Western blot, from 1 μM
T2 sequence (P35222 1-781): T1 sequence (P35222 1-781)

[3] = target: T3, β-catenin R1C (residues 138–781) (Homo sapiens, UniProt P35222); assay: Streptavidin pull-down with β-catenin truncate; type: binding
T3 sequence (P35222 138-781): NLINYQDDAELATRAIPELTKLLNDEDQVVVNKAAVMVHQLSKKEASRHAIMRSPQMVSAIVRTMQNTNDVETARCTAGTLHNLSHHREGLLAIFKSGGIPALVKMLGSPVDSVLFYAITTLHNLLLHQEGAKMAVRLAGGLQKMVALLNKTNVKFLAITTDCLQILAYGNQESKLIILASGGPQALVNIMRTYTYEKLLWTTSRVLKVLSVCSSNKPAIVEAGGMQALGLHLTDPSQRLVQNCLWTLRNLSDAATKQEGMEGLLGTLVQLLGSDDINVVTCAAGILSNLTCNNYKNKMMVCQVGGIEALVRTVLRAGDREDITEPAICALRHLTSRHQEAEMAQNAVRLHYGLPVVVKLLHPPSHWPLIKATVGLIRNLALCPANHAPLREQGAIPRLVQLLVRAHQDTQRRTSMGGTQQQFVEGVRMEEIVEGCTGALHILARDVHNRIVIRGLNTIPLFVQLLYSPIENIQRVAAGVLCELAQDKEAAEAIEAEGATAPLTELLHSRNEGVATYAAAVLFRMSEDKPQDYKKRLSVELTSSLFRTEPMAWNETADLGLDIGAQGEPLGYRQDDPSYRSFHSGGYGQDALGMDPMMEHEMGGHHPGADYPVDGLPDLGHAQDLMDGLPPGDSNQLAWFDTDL

[4] = target: T4, β-catenin in SW480 cell lysates (Homo sapiens, UniProt P35222); assay: Streptavidin pull-down from cell lysates; type: binding; conditions: 10 μM
T4 sequence (P35222 1-781): T1 sequence (P35222 1-781)

[5] = Hepatic microsome stability, human; type: in vitro ADME; conditions: liver microsomes, pH 7.4
[6] = Hepatic microsome stability, mouse; type: in vitro ADME; conditions: liver microsomes, pH 7.4
[7] = test system: normal mammary epithelial MCF10A cells; assay: FACS annexin V/PI apoptosis, normal cells; type: cell-based, human; conditions: 72 h treatment
[8] = test system: Axin2 and cyclin D1 in SW480 and Wnt 3a-activated MDA-MB-231 cells; assay: Western blot of Wnt target proteins; type: cell-based, human; conditions: SW480 and Wnt 3a-activated MDA-MB-231, 24 h
[9] = test system: MDA-MB-231 cells; assay: Scratch wound healing assay; type: cell-based; conditions: 10% serum, mitomycin 10 μg/mL
[10] = test system: PDX 4013 tumors; assay: PDX 4013 TNBC xenograft, tumor growth and tolerability; conditions: 90 mg/kg orally daily in saline, 5 days
[11] = test system: TNBC cells; assay: Clonogenic assay; type: cell-based
[12] = test system: MDA-MB-231 cells; assay: 3D spheroid BME cell invasion assay; type: cell-based; conditions: day 6
[13] = Mouse PK study; type: in vivo, C57BL/6 mice; conditions: p.o., 20 mg/kg
[14] = test system: β-catenin-expressing HEK293 cells; assay: TOPFlash luciferase reporter assay, HEK293; type: cell-based; conditions: 200 μM, 24 h
[15] = target: BCL9 HD2 (Homo sapiens) (UniProt O00512); conditions: cited from earlier work
BCL9 HD2 (Homo sapiens), sequence (O00512 351-374): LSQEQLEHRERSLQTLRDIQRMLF

## Cl.Cn1cc(-c2ccc(CN(C(=O)[C@@H]3CCCN(c4cccc(OC(C)(C)C(=O)N5CCNCC5)c4)C3)C3CC3)cc2)cn1 [compound 18, (R)-N-Cyclopropyl-1-(3-((2-methyl-1-oxo-1-(piperazin-1-yl)propan-2-yl)oxy)phenyl)-N-(4-(1-methyl-1H-pyrazol-4-yl)benzyl)piperidine-3-carboxamide]
[1]
  fold less potent than ZW4864 (β-catenin/BCL9 Ki): 89 fold

## CC(C)(Oc1cccc(N2CCC[C@@H](C(=O)N(CCOCCOCCNC(=O)CCCC[C@@H]3SC[C@@H]4NC(=O)N[C@@H]43)Cc3ccc(-c4cn[nH]c4)cc3)C2)c1)C(=O)N1CCNCC1 [Biotin-ZW4864, (R)-N-(4-(1H-Pyrazol-4-yl)benzyl)-1-(3-((2-methyl-1-oxo-1-(piperazin-1-yl)propan-2-yl)oxy)phenyl)-N-(2-(2-(2-(5-((3aS,4S,6aR)-2-oxohexahydro-1H-thieno[3,4-d]imidazol-4-yl)pentanamido)ethoxy)ethoxy)ethyl)piperidine-3-carboxamide]
[2]
  pull-down of purified full-length β-catenin: bound with the purified full-length β-catenin in a concentration-dependent manner starting at 1 μM; also recorded: pulled down the full-length β-catenin at 1 μM
[3]; 10 μM
  pull-down of β-catenin R1C: did not pull down β-catenin R1C
[3]; 50 μM
  pull-down of β-catenin R1C: pulled down β-catenin R1C
[4]
  binding to β-catenin in SW480 cell lysates: effectively bind with β-catenin in SW480 cell lysates

## CC(C)(Oc1cccc(N2CCC[C@@H](C(=O)N(Cc3ccc(-c4ccn[nH]4)cc3)C3CC3)C2)c1)C(=O)N1CCNCC1.Cl [compound 17, (R)-N-(4-(1H-Pyrazol-5-yl)benzyl)-N-cyclopropyl-1-(3-((2-methyl-1-oxo-1-(piperazin-1-yl)propan-2-yl)oxy)phenyl)piperidine-3-carboxamide]
[1]
  fold less potent than ZW4864 (β-catenin/BCL9 Ki): 10 fold

## CCN(Cc1ccc(-c2cn[nH]c2)cc1)C(=O)[C@@H]1CCCN(c2cccc(OC(C)(C)C(=O)N3CCNCC3)c2)C1.Cl [compound 21, (R)-N-(4-(1H-Pyrazol-4-yl)benzyl)-N-ethyl-1-(3-((2-methyl-1-oxo-1-(piperazin-1-yl)propan-2-yl)oxy)phenyl)piperidine-3-carboxamide]
[5]
  microsomal CLint at 1 μM: 24 µL/min/mg
[6]
  half-life at 1 μM: 7.7 min

## CC(C)(Oc1cccc(N2CCC[C@@H](C(=O)N(Cc3ccc(-c4cn[nH]c4)cc3)C3CC3)C2)c1)C(=O)N1CCNCC1.Cl [ZW4864, (R)-N-(4-(1H-Pyrazol-4-yl)benzyl)-N-cyclopropyl-1-(3-((2-methyl-1-oxo-1-(piperazin-1-yl)propan-2-yl)oxy)phenyl)piperidine-3-carboxamide]
[7]
  apoptosis (FACS annexin V/PI): sparing normal mammary epithelial MCF10A cells
[8]
  expression of proteins Axin2 and cyclin D1 (Western blot): substantially decreased
[9]
  MDA-MB-231 cell migration: suppressed MDA-MB-231 cell migration in a dose-dependent manner
[10]
  body weight and toxicity: no significant decrease in weight or major toxicity issues
  tumor growth compared with vehicle: a variation in tumor growth
[11]
  colony formation: inhibited colony formation
[12]
  3D spheroid cell invasion: suppressed MDA-MB-231 cell invasion in a dose-dependent manner
[13]
  CL: 51.10 mL/min/kg
[5]
  microsomal CLint at 1 μM: 18 µL/min/mg
[6]
  half-life at 1 μM: 9.6 min

## CN1CCN(C(=O)C(C)(C)Oc2cccc(N3CCC[C@@H](C(=O)N(Cc4ccc(-c5cn[nH]c5)cc4)C4CC4)C3)c2)CC1 [compound 19, (R)-N-(4-(1H-Pyrazol-4-yl)benzyl)-N-cyclopropyl-1-(3-((2-methyl-1-(4-methylpiperazin-1-yl)-1-oxopropan-2-yl)oxy)phenyl)piperidine-3-carboxamide]
[14]
  TOPFlash luciferase activity, in words: did not show any activity

## beta-catenin (from UniProt P35222)
[15]
  Kd: 470 nM

## CC(C)c1ccc(CN(C(=O)[C@@H]2CCCN(c3cccc(OC(C)(C)C(=O)N4CCNCC4)c3)C2)C2CC2)cc1.Cl [compound 7, (R)-N-Cyclopropyl-N-(4-isopropylbenzyl)-1-(3-((2-methyl-1-oxo-1-(piperazin-1-yl)propan-2-yl)oxy)phenyl)piperidine-3-carboxamide]
[1]; compared with 3
  fold more potent than 3 (β-catenin/BCL9 Ki): 2 fold

## CCOCCN(Cc1ccc(-c2cn[nH]c2)cc1)C(=O)[C@@H]1CCCN(c2cccc(OC(C)(C)C(=O)N3CCNCC3)c2)C1.Cl [compound 22, (R)-N-(4-(1H-Pyrazol-4-yl)benzyl)-N-(2-ethoxyethyl)-1-(3-((2-methyl-1-oxo-1-(piperazin-1-yl)propan-2-yl)oxy)phenyl)piperidine-3-carboxamide]
[1]; AlphaScreen, values only in Figure 2B
  inhibitory affinity for β-catenin/BCL9 PPI, in words: maintained low μM inhibitory affinities
